From the NIST ThermoML archive (doi:10.1021/je025649t)
Numbers after ± are expanded uncertainties.

Key:
[1] = xn = mol fraction of the nth substance listed; conditions: 298.15 K, 101 kPa, Liquid, Vibrating tube method
[2] = refractive index (Na D-line) (dimensionless); xn = mol fraction of the nth substance listed; conditions: 298.15 K, 101 kPa, Liquid, refractometer
[3] = heat capacity at constant pressure per volume; xn = mol fraction of the nth substance listed; conditions: 298.15 K, 101 kPa, Liquid, Flow calorimetry
[4] = excess molar enthalpy (molar enthalpy of mixing); xn = mol fraction of the nth substance listed; conditions: 298.15 K, 101 kPa, Liquid, Flow calorimetry
[5] = 298.15 K; 101.33 kPa; Liquid; Vibrating tube method
[6] = molar heat capacity at constant pressure; conditions: 298.15 K; 101.33 kPa; Liquid; Flow calorimetry
[7] = refractive index (Na D-line) (dimensionless); conditions: 298.15 K; 101.33 kPa; Liquid; refractometer

CCCCCC(C)=O [2-heptanone] + C1CCOCC1
Conditions	excess molar enthalpy [kcal/mol]	heat capacity [J/K/m3]	mass density [kg/m3]	refractive index
[1], x2 = 0.0796	–	–	814.73 ± 0.81	–
[1], x2 = 0.1679	–	–	819.18 ± 0.77	–
[1], x2 = 0.2235	–	–	822.12 ± 0.75	–
[1], x2 = 0.3185	–	–	827.4 ± 0.72	–
[1], x2 = 0.3518	–	–	829.33 ± 0.7	–
[1], x2 = 0.4045	–	–	832.49 ± 0.68	–
[1], x2 = 0.4377	–	–	834.53 ± 0.67	–
[1], x2 = 0.4617	–	–	836.04 ± 0.66	–
[1], x2 = 0.5166	–	–	839.61 ± 0.64	–
[1], x2 = 0.5455	–	–	841.54 ± 0.63	–
[1], x2 = 0.5907	–	–	844.65 ± 0.61	–
[1], x2 = 0.6312	–	–	847.53 ± 0.6	–
[1], x2 = 0.6667	–	–	850.14 ± 0.58	–
[1], x2 = 0.7077	–	–	853.23 ± 0.57	–
[1], x2 = 0.7101	–	–	853.42 ± 0.57	–
[1], x2 = 0.7907	–	–	859.84 ± 0.54	–
[1], x2 = 0.8696	–	–	866.59 ± 0.5	–
[1], x2 = 0.9539	–	–	874.37 ± 0.47	–
[2], x2 = 0.0855	–	–	–	1.4075 ± 0.00039
[2], x2 = 0.1588	–	–	–	1.4081 ± 0.00037
[2], x2 = 0.2375	–	–	–	1.40879 ± 0.00036
[2], x2 = 0.3113	–	–	–	1.40947 ± 0.00034
[2], x2 = 0.3532	–	–	–	1.40988 ± 0.00033
[2], x2 = 0.3936	–	–	–	1.41029 ± 0.00033
[2], x2 = 0.4287	–	–	–	1.41065 ± 0.00032
[2], x2 = 0.4658	–	–	–	1.41105 ± 0.00031
[2], x2 = 0.5486	–	–	–	1.41198 ± 0.0003
[2], x2 = 0.5896	–	–	–	1.41246 ± 0.00029
[2], x2 = 0.6261	–	–	–	1.41291 ± 0.00028
[2], x2 = 0.6665	–	–	–	1.41343 ± 0.00027
[2], x2 = 0.7046	–	–	–	1.41393 ± 0.00026
[2], x2 = 0.7855	–	–	–	1.41507 ± 0.00025
[2], x2 = 0.8677	–	–	–	1.41633 ± 0.00023
[2], x2 = 0.9473	–	–	–	1.41768 ± 0.00022
[3], x2 = 0.0687	–	1711900 ± 2700	–	–
[3], x2 = 0.1469	–	1699600 ± 2600	–	–
[3], x2 = 0.2226	–	1687400 ± 2600	–	–
[3], x2 = 0.3113	–	1672200 ± 2600	–	–
[3], x2 = 0.3855	–	1659100 ± 2600	–	–
[3], x2 = 0.4613	–	1645000 ± 2500	–	–
[3], x2 = 0.5449	–	1628000 ± 2500	–	–
[3], x2 = 0.6288	–	1610700 ± 2500	–	–
[3], x2 = 0.7034	–	1594700 ± 2500	–	–
[3], x2 = 0.7801	–	1576700 ± 2400	–	–
[3], x2 = 0.8581	–	1558500 ± 2400	–	–
[3], x2 = 0.9388	–	1538500 ± 2400	–	–
[4], x2 = 0.1	0.00354 ± 0.000215	–	–	–
[4], x2 = 0.15	0.0053 ± 0.000232	–	–	–
[4], x2 = 0.2	0.00696 ± 0.000239	–	–	–
[4], x2 = 0.25	0.0082 ± 0.000263	–	–	–
[4], x2 = 0.3	0.00946 ± 0.000263	–	–	–
[4], x2 = 0.35	0.0106 ± 0.000263	–	–	–
[4], x2 = 0.4	0.0118 ± 0.000287	–	–	–
[4], x2 = 0.45	0.0129 ± 0.000287	–	–	–
[4], x2 = 0.5	0.0138 ± 0.000287	–	–	–
[4], x2 = 0.55	0.0144 ± 0.000311	–	–	–
[4], x2 = 0.6	0.0147 ± 0.000311	–	–	–
[4], x2 = 0.65	0.0146 ± 0.000311	–	–	–
[4], x2 = 0.7	0.0142 ± 0.000287	–	–	–
[4], x2 = 0.75	0.0134 ± 0.000287	–	–	–
[4], x2 = 0.8	0.012 ± 0.000287	–	–	–
[4], x2 = 0.85	0.0103 ± 0.000263	–	–	–
[4], x2 = 0.9	0.00793 ± 0.000263	–	–	–

O=C1CCCCC1 [cyclohexanone] + C1CCOCC1
[4]
Conditions	excess molar enthalpy [kcal/mol]
x2 = 0.1	0.00647 ± 0.000239
x2 = 0.15	0.00919 ± 0.000263
x2 = 0.2	0.0117 ± 0.000287
x2 = 0.25	0.0139 ± 0.000287
x2 = 0.3	0.016 ± 0.000311
x2 = 0.35	0.0176 ± 0.000335
x2 = 0.4	0.0189 ± 0.000335
x2 = 0.45	0.0198 ± 0.000335
x2 = 0.5	0.0207 ± 0.000335
x2 = 0.55	0.0214 ± 0.000359
x2 = 0.6	0.0215 ± 0.000359
x2 = 0.65	0.0209 ± 0.000359
x2 = 0.7	0.0199 ± 0.000335
x2 = 0.75	0.0184 ± 0.000335
x2 = 0.8	0.0164 ± 0.000311
x2 = 0.85	0.0137 ± 0.000311
x2 = 0.9	0.01 ± 0.000263

CCCC(C)=O [pentan-2-one] + C1CCOCC1
Conditions	excess molar enthalpy [kcal/mol]	heat capacity [J/K/m3]	mass density [kg/m3]	refractive index
[1], x2 = 0.0708	–	–	806.39 ± 0.42	–
[1], x2 = 0.1523	–	–	812.26 ± 0.43	–
[1], x2 = 0.2361	–	–	818.39 ± 0.43	–
[1], x2 = 0.3015	–	–	823.22 ± 0.43	–
[1], x2 = 0.3529	–	–	827.06 ± 0.43	–
[1], x2 = 0.3858	–	–	829.54 ± 0.43	–
[1], x2 = 0.4384	–	–	833.53 ± 0.43	–
[1], x2 = 0.4683	–	–	835.82 ± 0.44	–
[1], x2 = 0.5046	–	–	838.6 ± 0.44	–
[1], x2 = 0.5548	–	–	842.49 ± 0.44	–
[1], x2 = 0.5825	–	–	844.66 ± 0.44	–
[1], x2 = 0.6397	–	–	849.17 ± 0.44	–
[1], x2 = 0.6747	–	–	851.95 ± 0.44	–
[1], x2 = 0.7079	–	–	854.61 ± 0.44	–
[1], x2 = 0.7776	–	–	860.26 ± 0.45	–
[1], x2 = 0.8646	–	–	867.44 ± 0.45	–
[1], x2 = 0.9428	–	–	874.02 ± 0.45	–
[2], x2 = 0.0811	–	–	–	1.39011 ± 0.00021
[2], x2 = 0.1565	–	–	–	1.39223 ± 0.00021
[2], x2 = 0.2425	–	–	–	1.39468 ± 0.00021
[2], x2 = 0.3122	–	–	–	1.39668 ± 0.00021
[2], x2 = 0.3557	–	–	–	1.39796 ± 0.00021
[2], x2 = 0.4037	–	–	–	1.39937 ± 0.00021
[2], x2 = 0.4406	–	–	–	1.40047 ± 0.00021
[2], x2 = 0.4757	–	–	–	1.40153 ± 0.00021
[2], x2 = 0.5107	–	–	–	1.40259 ± 0.00021
[2], x2 = 0.5449	–	–	–	1.40364 ± 0.00021
[2], x2 = 0.5933	–	–	–	1.40514 ± 0.00021
[2], x2 = 0.6252	–	–	–	1.40614 ± 0.00021
[2], x2 = 0.6681	–	–	–	1.4075 ± 0.00021
[2], x2 = 0.708	–	–	–	1.40878 ± 0.00021
[2], x2 = 0.7915	–	–	–	1.4115 ± 0.00021
[2], x2 = 0.8776	–	–	–	1.41439 ± 0.00021
[2], x2 = 0.9411	–	–	–	1.41658 ± 0.00021
[3], x2 = 0.0611	–	1698200 ± 2600	–	–
[3], x2 = 0.1398	–	1685200 ± 2600	–	–
[3], x2 = 0.2219	–	1670700 ± 2600	–	–
[3], x2 = 0.3029	–	1656100 ± 2600	–	–
[3], x2 = 0.3789	–	1641900 ± 2500	–	–
[3], x2 = 0.457	–	1627300 ± 2500	–	–
[3], x2 = 0.5376	–	1611700 ± 2500	–	–
[3], x2 = 0.6153	–	1596800 ± 2500	–	–
[3], x2 = 0.698	–	1580600 ± 2400	–	–
[3], x2 = 0.7772	–	1565100 ± 2400	–	–
[3], x2 = 0.8503	–	1550300 ± 2400	–	–
[3], x2 = 0.9311	–	1533300 ± 2400	–	–
[4], x2 = 0.1	0.00636 ± 0.000239	–	–	–
[4], x2 = 0.15	0.0092 ± 0.000263	–	–	–
[4], x2 = 0.2	0.0119 ± 0.000287	–	–	–
[4], x2 = 0.25	0.0144 ± 0.000311	–	–	–
[4], x2 = 0.3	0.0164 ± 0.000311	–	–	–
[4], x2 = 0.35	0.0182 ± 0.000335	–	–	–
[4], x2 = 0.4	0.0197 ± 0.000335	–	–	–
[4], x2 = 0.45	0.0209 ± 0.000359	–	–	–
[4], x2 = 0.5	0.0218 ± 0.000359	–	–	–
[4], x2 = 0.55	0.0222 ± 0.000359	–	–	–
[4], x2 = 0.6	0.0222 ± 0.000359	–	–	–
[4], x2 = 0.65	0.0219 ± 0.000359	–	–	–
[4], x2 = 0.7	0.0212 ± 0.000359	–	–	–
[4], x2 = 0.75	0.0197 ± 0.000335	–	–	–
[4], x2 = 0.8	0.0174 ± 0.000335	–	–	–
[4], x2 = 0.85	0.0145 ± 0.000311	–	–	–
[4], x2 = 0.9	0.0107 ± 0.000287	–	–	–

C1CCOCC1 [tetrahydropyran]
Conditions	mass density [kg/m3]	molar heat capacity at constant pressure [J/K/mol]	refractive index
[5]	878.91	–	–
[6]	–	149.32	–
[7]	–	–	1.41865
